Data on 27 compounds can be found in patent US20140329858A1, “Cyclic Urea Derivatives As Androgen Receptor Antagonists” (priority 2011, published 2014).

The subject of one assay is Vcap cells. Kind of assay: Dihydrotestosterone (DHT) mediated XTT cell proliferation assay for screening AR antagonists using Vcap cells. The assay is classed as cell-based. Conditions: 0.2 nM DHT, effect reached at high conc. As for the experimental part:
Dihydrotestosterone (DHT) Mediated XTT Cell Proliferation Assay for Screening AR Antagonists Using Vcap cells
The Vcap cells (4×10^6 cells) were seeded in a T-75 flask containing DMEM with 15% FBS. After 72 hours, the media was removed; the cells were washed once and replaced with phenol red free DMEM containing 8% charcoal stripped serum. Then, the cells were starved in phenol red free DMEM with 8% charcoal stripped serum for 5 days. Following the starvation, the cells were harvested and seeded in 96 well plates (10×10^3 cells per well) in phenol red free DMEM with 8% charcoal stripped serum (Day 0). The cells were allowed to settle and on Day 4 they were treated with different concentrations of the compound (30 μM, 10 μM, 1 μM, 500 nM, 100 nM, 10 nM, 1 nM, 0.1 nM) in the presence of 0.2 nM DHT. DHT alone and a DMSO controls were also included. All treatments were done in triplicate. The drugs were replenished on Day 7 and the cells were allowed to grow for another 72 hours. On Day 10, the experiment was terminated by adding the XTT reagent (2,3-bis[2-methoxy-4-notro-5-sulfophenyl]-2H-tetrazolium-5-caboxyanilide inner salt) dissolved in Phenol red free DMEM without serum. The cells with the XTT reagents were incubated inside the CO2 incubator for 3-4 hours for color development; after which the readings were taken at […] using a spectramax Gemini plate reader.
Data fitting: The IC50 curves for the 8 compound concentrations were calculated with GraphPad Prism software using the sigmoidal dose-response function. (Graphpad Software, San Diego, Calif., USA).
For the compound `CNC(=O)c1ccc(N2C(=O)N(c3ccc(C#N)c(C(F)(F)F)c3)[C@@H]3CCCC[C@H]32)cn1` (racemic) [Example 53, Trans-5-(3-(4-cyano-3-(trifluoromethyl)phenyl)-2-oxooctahydro-1H-benzo[d]imidazol-1-yl)-N-methylpicolinamide (±)], the “XTT: only 65% @ high conc” value amounted to 65%.

The assay is the same for the next values; noted with them: Homo sapiens, 240 h, in the presence of 0.2 nM DHT, XTT readout on Day 10, IC50 curves from 8 concentrations.
In the case of `N#Cc1ccc(N2C(=O)N(c3ccc(Cl)cc3)[C@H]3CCCC[C@@H]32)cc1C(F)(F)F` [Example 61, 4-((3aS,7aS)-3-(4-chlorophenyl)-2-oxooctahydro-1H-benzo[d]imidazol-1-yl)-2-(trifluoromethyl)benzonitrile], the IC50 was 348 nM.
On the same count and under the same terms, the figure for `CNc1ccc(N2C(=O)N(c3ccc(C#N)c(C(F)(F)F)c3)[C@@H]3CCCC[C@H]32)cc1F` (racemic) [Example 14, Trans-4-(3-(3-fluoro-4-(methylamino)phenyl)-2-oxooctahydro-1H-benzo[d]im-idazol-1-yl)-2-(trifluoromethyl)benzonitrile (±)] is 715 nM; for `N#Cc1ccc(N2C(=O)N(c3cccc(S(N)(=O)=O)n3)[C@@H]3CCCC[C@H]32)cc1C(F)(F)F` (racemic) [Example 9, Trans-6-(3-(4-cyano-3-(trifluoromethyl)phenyl)-2-oxooctahydro-1H-benzo[c]imidazol-1-yl) pyridine-2-sulfonamide (±)] it is > 10000 nM; for `COCCONC(=O)c1ccc(N2C(=O)N(c3ccc(C#N)c(C(F)(F)F)c3)[C@H]3CCCC[C@@H]32)cc1F` [Example 29, 4-((3aS,7aS)-3-(4-Cyano-3-(trifluoromethyl)phenyl)-2-oxooctahydro-1H-benzo[d]imidazol-1-yl)-2-fluoro-N-(2-methoxyethoxy)benzamide] it is 176 nM.
Turning to `N#Cc1ccc(N2C(=O)N(c3ccnc(F)c3)[C@@H]3CCCC[C@H]32)cc1C(F)(F)F` (racemic) [Example 10, Trans-4-(3-(2-fluoropyridin-4-yl)-2-oxooctahydro-1H-benzo[d]imidazol-1-yl)-2-(trifluoromethyl)benzonitrile (±)], the IC50 stood at 365 nM.
On the same count and under the same terms, the figure for `N#Cc1ccc(N2C(=O)N(c3ccc(C(N)=O)c(F)c3)[C@H]3CCCC[C@@H]32)cc1C(F)(F)F` [Example 31, 4-((3aS,7aS)-3-(4-cyano-3-(trifluoromethyl)phenyl)-2-oxooctahydro-1H-benzo[d]imidazol-1-yl)-2-fluorobenzamide] is 37.2 nM; for `N#Cc1ccc(N2C(=O)N(c3ccc(Cl)cc3)[C@@H]3CCCC[C@H]32)cc1C(F)(F)F` (racemic) [Example 60, Trans-4-(3-(4-chlorophenyl)-2-oxooctahydro-1H-benzo[d]imidazol-1-yl)-2-(trifluoromethyl)benzonitrile (±)] it is 397 nM.
For the compound `N#Cc1ccc(N2C(=O)N(c3ccc(C(=O)N[C@@H]4CCOC4)c(F)c3)[C@H]3CCCC[C@@H]32)cc1C(F)(F)F` [Example 36], the half-maximal inhibitory concentration (IC50) turned out to be 203 nM.
On the same count and under the same terms, the figure for `CCOC(=O)c1ccc(N2C(=O)N(c3ccc(C#N)c(C(F)(F)F)c3)[C@@H]3CCCC[C@H]32)s1` (racemic) [Example 8, Trans-ethyl-5-(3-(4-cyano-3-(trifluoromethyl)phenyl)-2-oxooctahydro-1H-benzo[d]imidazol-1-yl)thiophene-2-carboxylate (±)] is > 10000 nM; for `CNC(=O)c1ccc(N2C(=O)N(c3ccc(C#N)c(C(F)(F)F)c3)[C@@H]3COCC[C@H]32)cc1F` (racemic) [Example 71, Trans-4-{3-[4-Cyano-3-(trifluoromethyl)phenyl]-2-oxo-octahydropyrano[3,4-d]imidazolidin-1-yl}-2-fluoro-N-methylbenzamide (±)] it is 656 nM; for `N#Cc1ccc(N2C(=O)N(c3ccc4c(c3)CCO4)[C@H]3CCCC[C@@H]32)cc1C(F)(F)F` [Example 58, 4-((3aS,7aS)-3-(2,3-dihydrobenzofuran-5-yl)-2-oxooctahydro-1H-benzo[d]imidazol-1-yl)-2-(trifluoromethyl)benzonitrile] it is 547 nM.
On the same count and under the same terms, with `CS(=O)(=O)Nc1ccc(N2C(=O)N(c3ccc(C#N)c(C(F)(F)F)c3)[C@@H]3CCCC[C@H]32)cc1F` (racemic) [Example 16, Trans-N-(4-(3-(4-cyano-3-(trifluoromethyl)phenyl)-2-oxooctahydro-1H-benzo[d]imidazol-1-yl)-2-fluorophenyl)methanesulfonamide (±)] the figure was 2450 nM; with `CONC(=O)c1ccc(N2C(=O)N(c3ccc(C#N)c(C(F)(F)F)c3)[C@@H]3CCCC[C@H]32)cc1F` (racemic) [Example 18, Trans-4-(3-(4-cyano-3-(trifluoromethyl)phenyl)-2-oxooctahydro-1H-benzo[d]im-idazol-1-yl)-2-fluoro-N-methoxybenzamide (±)], 374 nM.
The same measure, in the same setting: with `CNC(=O)c1ccc(N2C(=O)N(c3ccc(C#N)c(C(F)(F)F)c3)[C@@H]3CCCC[C@H]32)cn1` (racemic) [Example 53, Trans-5-(3-(4-cyano-3-(trifluoromethyl)phenyl)-2-oxooctahydro-1H-benzo[d]imidazol-1-yl)-N-methylpicolinamide (±)] the figure was 165 nM.
`N#Cc1ccc(N2C(=O)N(c3ccc(C(N)=O)cc3)[C@H]3CCCC[C@@H]32)cc1C(F)(F)F` [Example 66, 4-((3aS,7aS)-3-(4-cyano-3-(trifluoromethyl)phenyl)-2-oxooctahydro-1H-benzo[d]imidazol-1-yl)benzamide]: the half-inhibitory concentration (IC50) was found to be 261 nM.
On the same count and under the same terms, the figure for `CC(=O)Nc1ccc(N2C(=O)N(c3ccc(C#N)c(C(F)(F)F)c3)[C@@H]3CCCC[C@H]32)cc1F` (racemic) [Example 12] is 533 nM; for `N#Cc1ccc(N2C(=O)N(c3ccc(CO)c(F)c3)[C@H]3CCCC[C@@H]32)cc1C(F)(F)F` [Example 46, 4-((3aS,7aS)-3-(3-fluoro-4-(hydroxymethyl)phenyl)-2-oxooctahydro-1H-benzo[d]imidazol-1-yl)-2-(trifluoromethyl)benzonitrile] it is 660 nM.
On the same count and under the same terms, the figure for `CC(C)CONC(=O)c1ccc(N2C(=O)N(c3ccc(C#N)c(C(F)(F)F)c3)[C@@H]3CCCC[C@H]32)cc1F` (racemic) [Example 22, Trans-4-(3-(4-cyano-3-(trifluoromethyl)phenyl)-2-oxooctahydro-1H-benzo[d]im-idazol-1-yl)-2-fluoro-N-isobutoxybenzamide (±)] is 196 nM.
`CC(=O)N(C)c1ccc(N2C(=O)N(c3ccc(C#N)c(C(F)(F)F)c3)[C@@H]3CCCC[C@H]32)cc1F` (racemic) [Example 13, Trans-N-(4-(3-(4-cyano-3-(trifluoromethyl)phenyl)-2-oxooctahydro-1H-benzo[d]imidazol-1-yl)-2-fluorophenyl)-N-methylacetamide (±)]: the IC50 was found to be 1050 nM.
The same measure, in the same setting: the figure for `CNC(=O)c1ccc(N2C(=O)N(c3ccc(C#N)c(C(F)(F)F)c3)[C@@H]3CCOC[C@H]32)cc1F` (racemic) [Example 73, Trans-4-(1-(4-Cyano-3-(trifluoromethyl)phenyl)-2-oxohexahydropyrano[3,4-d]imidazol-3(2H)-yl)-2-fluoro-N-methylbenzamide (±)] is 2550 nM; for `N#Cc1ccc(N2C(=O)N(c3cc(Cl)cc(Cl)c3)[C@@H]3CCCC[C@H]32)cc1C(F)(F)F` (racemic) [Example 43, Trans-4-(3-(3,5-dichlorophenyl)-2-oxooctahydro-1H-benzo[d]imidazol-1-yl)-2-(trifluoromethyl)benzonitrile (±)] it is 339 nM.
`N#Cc1ccc(N2C(=O)N(c3ccnc(C(N)=O)c3)[C@H]3CCCC[C@@H]32)cc1C(F)(F)F` [Example 57, 4-((3aS,7aS)-3-(4-cyano-3-(trifluoromethyl)phenyl)-2-oxooctahydro-1H-benzo[d]imidazol-1-yl)picolinamide]: the IC50 was 265 nM.
Still for that read-out and setting: with `N#Cc1ccc(N2C(=O)N(c3ccc(C(N)=O)c(F)c3)[C@@H]3CCOC[C@H]32)cc1C(F)(F)F` (racemic) [Example 76, Trans-4-(3-(4-cyano-3-(trifluoromethyl)phenyl)-2-oxohexahydropyrano[3,4-d]imidazol-1(6H)-yl)-2-fluorobenzamide (±)] the figure was 2540 nM.

The assay is the same for the next values; noted with them: in the presence of 0.2 nM DHT, XTT readout on Day 10, IC50 curves from 8 concentrations.
Regarding `CNC(=O)c1ccc(N2C(=O)N(c3ccc(C#N)c(C(F)(F)F)c3)[C@@H]3CCCC[C@H]32)cc1F` (relative stereo) [Example 1b, Trans-4-{3-[4-cyano-3-(trifluoromethyl)phenyl]-2-oxo-octahydro-1H-1,3-benzodiazol-1-yl}-2-fluoro-N-Methylbenzamide (−)], the 50% inhibitory concentration (IC50) amounted to 90.5 nM.
Still for that read-out and setting: with `CNC(=O)c1ccc(N2C(=O)N(c3ccc(C#N)c(C(F)(F)F)c3)[C@@H]3CC=CC[C@H]32)cc1F` (relative stereo) [Example 83a] the figure was > 10000 nM.
Regarding `N#Cc1ccc(N2C(=O)N(c3ccc(C#N)c(C(F)(F)F)c3)[C@@H]3CCCC[C@H]32)cc1C(F)(F)F` (relative stereo) [Example 2b, Trans-4,4′-(2-oxohexahydro-1H-benzo[d]imidazole-1,3(2H)-diyl)bis(2-(trifluoromethyl)benzonitrile) (+)], the half-maximal inhibitory concentration (IC50) was > 10000 nM.
On to `CC(COC(C)(C)C)ONC(=O)c1ccc(N2C(=O)N(c3ccc(C#N)c(C(F)(F)F)c3)[C@@H]3CCCC[C@H]32)cc1F` (mixture of isomers) [Example 23, Trans-N-((1-(tert-butoxy)propan-2-yl)oxy)-4-(3-(4-cyano-3-(trifluoromethyl)phenyl)-2-oxooctahydro-1H-benzo[d]imidazol-1-yl)-2-fluorobenzamide (±)], for which the 50% inhibitory concentration (IC50) is > 10000 nM.
